Laboratory results from EP0248999A2, “Uses of enprostil-type prostaglandins in regulating fat and carbohydrate metabolism” (SYNTEX (U.S.A.) INC., priority 1986, dated 1987).
Read-outs that look alike come from different tables or passages of the source.

Legend:
serum cholesterol = assay: Example 1: oral enprostil, serum cholesterol in patients with high cholesterol baseline; format: in vivo, human; details: five weeks
Description: (§1) The following non-limiting examples will further clarify the nature of this invention. In these examples, serum lipids and cholesterol were measured by standard methods ("Manual of Laboratory Operations, Lipid Research Clinic Program, Lipid and Lipoprotein Analysis", DHEW Publication No. (NIH) 75-628 (1974)); serum insulin, GIP, and C-peptide were measured by radioimmunoassay; and apoproteins were measured by radial immunodiffusion.
A group of 20 patients with high cholesterol baseline were orally given 70 µg enprostil twice daily. […] The median change for the group was 16 percent reduction, with 60 percent of the patients tested showing a significant reduction in serum cholesterol.
A second group of 16 patients with a high cholesterol baseline were given […] enprostil twice daily.
A third group of 13 individuals were given a placebo. […] The median change was a 2 percent increase in cholesterol.

serum cholesterol levels [1] = assay: Example 2, Table 1: oral enprostil BID in hypercholesterolemic patients versus placebo; format: in vivo, human
Description: as §1

serum cholesterol levels [2] = assay: Example 2, Table 2: 9-day placebo-controlled cross-over study in normocholesterolemic subjects, serum lipids and apoproteins; format: in vivo, human; set-up: Mean reduction of cholesterol / Mean reduction of LDL-cholesterol / Mean reduction of HDL-cholesterol / Mean reduction of apoprotein-A / Mean reduction of apoprotein-B: concentration or dose not given beside the values; details: 9-day cross-over
Description: as §1
To further clarify the nature of these changes in a prospective manner, normal subjects were dosed with enprostil for periods ranging from 8 days up to 44 days in duration.
In a 9-day placebo-controlled cross-over study, with each subject serving as their own control, the mean reduction in cholesterol, LDL-cholesterol, and HDL-cholesterol are shown in Table 2.
These findings are surprising since the subjects in this study were normocholesterolemic at baseline (that is serum cholesterol under 250 mg/dl) and were on a free diet with no attempt to regulate dietary cholesterol intake.

serum cholesterol levels [3] = assay: Example 3: 44-day placebo-controlled dosing study, total and LDL-cholesterol; format: in vivo, human
Description: as §1
In a 44-day dosing study, 20 subjects participated in a placebo-controlled trial. Ten subjects received enprostil and the remainder received placebo. Data were obtained from 9 of the 10 subjects who received enprostil. […] This subject was normocholesterolemic at baseline and no dietary manipulation was attempted.

serum GIP levels = assay: Example 4: double-blind cross-over meal study, serum GIP; format: in vivo, human; details: 70p.g enprostil orally 30 minutes before meal; placebo four-fold increase
Description: as §1
Serum GIP levels are known to increase after meals.
Groups of 10 subjects participated in a double-blind, cross-over study. Either a placebo or 70p.g enprostil was orally given 30 minutes before meal time and levels of GIP were measured.

[4] = tested on: serum insulin and glucose levels; assay: Example 5: double-blind cross-over meal study, serum insulin and glucose; format: in vivo, human; details: enprostil orally 30 minutes before meal
Description: as §1
A group of 10 subjects participated in a double-blind cross-over study. Either a placebo or enprostil was orally given 30 minutes before meal time and levels of insulin and glucose were measured after the meal.

[5] = tested on: serum insulin and glucose levels; assay: Example 6: eight-day cross-over study with standard breakfast, serum glucose, insulin and GIP; format: in vivo, human; details: 70 µg orally
Description: as §1
Eight healthy male subjects received either […] enprostil per day or placebo for eight days followed by a washout period of one week and a subsequent second eight-day administration during which they received the opposite drug regime.
On day 1 and day 8 of each study period the subjects reported to the clinical studies unit fasting and were administered 70 µg of enprostil orally in a glass of water. Thirty minutes later they were administered a standard breakfast and blood samples were drawn at -30 (just prior to enprostil administration), O (at the time of enprostil administration), 15, 30, 60, 90, 120 and 180 minutes.

serum xylose = assay: Example 7: oral d-xylose absorption test in 10-day cross-over study; format: in vivo, human; details: 5 g d-xylose orally
Description: (§2) 10 normal subjects participated in a 10-day placebo-controlled cross-over study, receiving either placebo or 70 µg enprostil per day. On day 1 and day 9 of each study phase they orally received 5 g of d-xylose, a sugar not normally metabolized in man. Blood measurements for serum xylose were made at -30, 0, +30, 60, 120, 180, 240, and 300 minutes following ingestion.of xylose. On day 2 and day 10 of each study phase, the subjects received a 25 g intravenous glucose tolerance test, 30 minutes following enprostil administration.

serum glucose = assay: Example 7: 25 g intravenous glucose tolerance test; format: in vivo, human; details: 25 g intravenous glucose 30 minutes after enprostil, day 2 and day 10
Description: as §2

serum glucose levels = assay: Example 8 (headed 'Example'): 30-day dosing study with standard breakfast, serum glucose; format: in vivo, human; details: enprostil 35 pg BID
Description: 20 subjects participated in a study lasting up to 44 days. On day -8, all 20 subjects received a placebo capsule, followed 30 minutes later by a standard breakfast with serial blood measurements. Eight days later all 20 subjects were randomized to either enprostil 35 pg BID or placebo, and continued dosing for a period of 30 days. On days 1, 8, and 30, they were given enprostil followed 30 minutes later by a standard breakfast with serial blood measurements.

serum triglycerides = assay: Example 9: double-blind cross-over fatty meal study, serum and chylomicron triglycerides; format: in vivo, human
Description: as §1
(§3) Six male subjects participated in a double-blind cross-over study. Either placebo or enprostil […] was orally given 30 minutes before a fatty meal consisting of approximately 600 Kcal, 90% of which was fat. Following the meal, serum triglycerides and total serum cholesterol were measured at serial time points before and after removal of serum chylomicrons by ultracentrifugation. Serum HDL-cholesterol was measured only before chylomicron removal.

insulin and GIP = assay: Example 9: fatty meal study, insulin and GIP; format: in vivo, human
Description: as §1, §3

atherosclerotic plaque = assay: Example 10: cholesterol-fed rabbit, aortic atherosclerotic plaque; format: in vivo, New Zealand white rabbits; details: Group B: 2% cholesterol diet, enprostil 10 pg/Kg/day constant oral infusion, 56 days; vehicle Group A 25%
Description: Fortyfive New Zealand white rabbits were allocated to three groups, A, B, and C, each group consisting of 15 rabbits. Group A was fed a 2% cholesterol diet and received vehicle administered by constant oral infusion at 62 ul/day using an Alza minipump. Group B was also fed a 2% cholesterol diet but, via the minipump, received enprostil at an infusion rate of 10 pg/Kg/day. Group C was fed a normal diet and received no treatment.
At the end of 56 days of the above treatments, rabbits were sacrificed and their aortic tissue was subjected to pathologic examination. In Group C, the placebo control group, the percent of aortic area covered by atherosclerotic plaque was under 5%. In the rabbits from Group A, which had received the high cholesterol diet with vehicle infusion, 25% of the aortic area was covered with atherosclerotic plaque. These findings contrasted with those for the Group B rabbits, which in addition to the high cholesterol diet had received enprostil by continuous infusion . In these animals, only 10% of aortic tissue was covered with atheromatous plaque. This finding is statistically significant from the Group A rabbits.

[6] = Animal antisecretory assays; format: in vivo; details: compared with enprostil (isomer mixture)
insulin levels = details: cited from earlier work
[7] = of nine evaluable subjects receiving enprostil
[8] = one subject, baseline to day 44
[9] = enprostil 35 pg before fatty meal
[10] = administered by tube to the duodenum

## COC(=O)CCC=C=CCC1C(=O)CC(O)C1C=CC(O)COc1ccccc1 (racemic) [enprostil, methyl (±)-7-[(1R*,2R*,3R*)-3-hydroxy-2-[(E)-(3R*)-3-hydroxy-4-phenoxy-l-butenyl]-5-oxocyclopentyl]-4,5-heptadienoate]
Serum cholesterol; 35 pg enprostil twice daily, 16 patients with high cholesterol baseline
  median change (reduction) of serum cholesterol: eleven
Serum cholesterol; 35 pg twice daily, 16 patients
  number of patients showing greater than 10 percent serum cholesterol reduction: eight
  number of patients showing greater than 25 percent reduction: one
  number of patients showing no change in serum cholesterol: seven
  patients showing serum cholesterol reduction: 56%
Serum cholesterol; 70 µg enprostil orally twice daily, 20 patients with high cholesterol baseline
  median change (reduction) of serum cholesterol: 16%
Serum cholesterol; 70 µg twice daily, 20 patients
  number of patients showing greater than 10 percent reduction: eleven
  number of patients showing greater than 25 percent reduction: one
  number of patients showing no change in serum cholesterol: eight
  patients tested showing a significant reduction in serum cholesterol: 60%
Serum cholesterol levels [1]; 7 µg BID, 9 hypercholesterolemic subjects
  Cholesterol % decrease (combined 2-12 week of dosing): 67%
Serum cholesterol levels [1]; 7 µg BID, 9 subjects
  Median % change (cholesterol): -11%
Serum cholesterol levels [1]; 35 µg BID, 28 hypercholesterolemic subjects
  Cholesterol % decrease (combined 2-12 week of dosing): 64%
Serum cholesterol levels [1]; 35 µg BID, 28 subjects
  Median % change (cholesterol): -13%
Serum cholesterol levels [1]; 70 µg BID, 28 hypercholesterolemic subjects
  Cholesterol % decrease (combined 2-12 week of dosing): 64%
Serum cholesterol levels [1]; 70 µg BID, 28 subjects
  Median % change (cholesterol): -17%
Serum cholesterol levels [2]
  change in total triglycerides: essentially no change
Serum cholesterol levels [2]; free diet
  Mean reduction of HDL-cholesterol: -9.2%
  Mean reduction of LDL-cholesterol: -21.0%
  Mean reduction of apoprotein-A: -1.8%
  Mean reduction of apoprotein-B: -16.0%
  Mean reduction of cholesterol: -15.0%
Serum cholesterol levels [3]; [7]
  individuals with reduction in total and LDL-cholesterol throughout the entire 44-day period: Three
  subjects showing a reduction of total cholesterol by 16 days: Six
Serum cholesterol levels [3]; one subject (most dramatic example), mean baseline 208 mg/dl, normocholesterolemic, no dietary manipulation
  total serum cholesterol at day 44: 123 mg/dL
Serum cholesterol levels [3]; one subject, baseline 140 mg/dl
  LDL-cholesterol at day 44: 75 mg/dL
Serum cholesterol levels [3]; [8]
  reduction in LDL-cholesterol: 46%
  reduction of total serum cholesterol: 43%
Serum GIP levels
  increase in serum GIP 60 minutes after the meal stimulus: no increase
[4]
  raise in glucose levels after the meal: no statistically or clinically significant raise
[4]; placebo five-fold
  increase of insulin levels after the meal: two-fold
[5]; both study days
  serum GIP: essentially complete inhibition
[5]; day 1 and 8
  serum insulin concentrations for each time point: marked reduction
[5]; day 1 and day 8
  reduction of area under the serum glucose by time curve compared to the placebo phase: 15-20%
Serum xylose; 70 µg enprostil per day, days 1 and 9
  peak serum xylose levels: marked suppression and delay
Serum xylose; 70 µg per day
  reduction in the amount of xylose excreted over 5 hours: 30%
Serum xylose; 70 µg per day, placebo 1.8g
  amount of xylose excreted over 5 hours: 1.3 g
Serum glucose
  serum glucose by time curves following intravenous glucose administration, enprostil versus placebo: no marked differences
Serum glucose levels; standard breakfast
  peak blood glucose levels versus placebo: substantially reduced
Serum glucose levels; standard breakfast 30 minutes after dose, placebo approximately 60 minutes
  time of appearance of peak blood glucose levels: ~90 min
Serum triglycerides; enprostil 35 pg 30 minutes before fatty meal, at 360 minutes, placebo 160 mg/dl at 120 minutes
  maximal postprandial total serum triglycerides before chylomicron removal: 105 mg/dL
Serum triglycerides; [9]
  appearance of postprandial serum: remained clear
  chylomicron triglyceride content (in words): virtually complete suppression
  chylomicron-associated triglyceridemia through 120 minutes: complete absence
Serum triglycerides; enprostil 35 pg phase, mean, placebo 86 mg/dl
  fasting baseline total serum triglycerides before chylomicron removal: 83 mg/dL
Serum triglycerides; enprostil 35 pg phase, placebo 82 mg/dl
  fasting serum triglycerides after chylomicron removal: 80 mg/dL
Serum triglycerides; enprostil 35 pg, 360 minutes, placebo 115 mg/dl (180 minutes)
  maximal postprandial serum triglycerides after chylomicron removal: 89 mg/dL
Serum triglycerides; enprostil 35 pg, at 360 minutes after fatty meal, placebo 46 mg/dl (120 minutes)
  mean rise of chylomicron triglyceride content over fasting level: 16 mg/dL
Insulin and GIP; enprostil 35 pg, at 30, 60, and 90 minutes
  insulin levels following the fatty meal: significantly lower
Insulin and GIP; enprostil 35 µg, up to 360 minutes, p<0.05
  GIP levels following the fatty meal: virtually completely suppressed
Atherosclerotic plaque
  aortic tissue covered with atheromatous plaque: 10%

## COC(=O)CCC=C=CC[C@H]1C(=O)C[C@@H](O)[C@@H]1/C=C/[C@@H](O)COc1ccccc1 (single isomer, unassigned) [R allenic isomer of enprostil]
[6]
  potency in animal antisecretory assays: increased potency
  toxicity in animal antisecretory assays: lower toxicity

## CCCCC[C@](C)(O)/C=C/[C@H]1[C@H](O)CC(=O)[C@@H]1C/C=C\CCCC(=O)OC [(15S),15-methyl-PGE2 methyl ester]
Insulin levels; [10]
  insulin levels: lowered
  serum glucose levels: no change
Insulin levels; intraduodenally or intravenously
  time to peak serum glucose levels: no change

## CCCCC[C@](C)(O)/C=C/[C@H]1[C@H](O)CC(=O)[C@@H]1C/C=C\CCCC(=O)OCC [(15S),15-methyl-PGE2 ethyl ester]
Insulin levels; intravenous administration
  glucose levels: without affecting
  insulin levels: lowered
